“Also recorded” adds a separate entry of the source. Ends that are not written are not given here.
Tested on: zebrafish embryos
Experiment: Melanin inhibitory assay in zebrafish embryos
Format: in vivo
Settings: 48 h after fertilization, vs control
Procedure: To perform the test of acute toxicity, a total of 20 fertilized zebrafish embryos were collected at around 4 h after fertilization and added to each well in a 12-well plate. These embryos then underwent treatment using different quantities of […] (2, 4, 6, 8, and 10 µM), while the negative control was distilled water and the positive control was 3,4-dichloroaniline. Incubation of the plate then took place until 48 h after fertilization at a temperature of 28.5 ± 1 °C. The test solutions were refreshed at 24 h after fertilization to allow the counting and removal of any dead embryos. Following exposure, a stereomicroscope (SZX16, Olympus, Japan) was used to record the embryo morphological effects. Meanwhile, a slightly modified version of a previously described melanin inhibitory assay was carried out[30]. The embryos were then homogenized using a cold lysis buffer (PBS pH 7.4, 1% Triton-X and 1% DMSF). The lysate then underwent 10 min of sonication before being placed in a centrifuge for 5 min at 10,000×g. The pellet was then removed from the centrifuge and dissolved in 200 µL of 1 N NaOH for 1 h at a temperature of 85 °C. This sample was subsequently vortexed and placed in the centrifuge for a further 5 min at 10,000×g. A microplate reader (Spectramax M5, Molecular Devices, USA) was then employed to determine the supernatant absorbance at 490 nm. Melanin content levels could then by calibrated by using the protein amount, and were reported in the form of a percentage compared to the untreated control. In the melanin inhibitory assay, the positive control used was phenylthiourea (PTU) solution (0.0015%).

VDGYPAAGY [VY-9, Val-Asp-Gly-Tyr-Pro-Ala- Ala-Gly-Tyr]
melanin content (4 µM): anti-melanogenic effects were observed; also recorded: the lowest among all treatment groups, it did not achieve statistical significance
melanin content (any concentration (2–10 µM)): no significant reduction in melanin levels at any concentration

Source: PMC11681159, “Bee pollen peptides as potent tyrosinase inhibitors with anti-melanogenesis effects in murine b16f10 melanoma cells and zebrafish embryos” (Scientific Reports, 2024)
